Measurements: article PMC5946847, “Synthesis and biological evaluation of aryl-oxadiazoles as inhibitors of Mycobacterium tuberculosis” (Bioorganic & Medicinal Chemistry Letters, 2018)
≈ marks a conversion by molar mass, not a printed value. Where two headings read alike, the source gives them in different places.

What was measured:
[1] = tested on: M. tuberculosis H37Rv expressing DsRed; test: microbe, parasite or virus in culture; assay type: cell-based; settings: Mycobacterium tuberculosis, average ± standard deviation for at least 2 runs, read-out: 7H9-Ty-BT MIC
[2] = tested on: M. tuberculosis H37Rv expressing DsRed; test: microbe, parasite or virus in culture; assay type: cell-based; settings: Mycobacterium tuberculosis, read-out: 7H9-Tw-OADC MIC
[3] = tested on: Vero cells (ATCC CCL81); test: Cytotoxicity in Vero cells (CellTiter-Glo); assay type: cell-based; settings: Chlorocebus sabaeus, 48 h, 2 days
Protocol: Vero cells (ATCC® CCL81) were grown in DMEM, high glucose, GlutaMAX™ (Invitrogen), 10% FBS, 50 units/mL penicillin, and 50 µg/mL streptomycin, seeded as 1200 cells per well in 384-well plates and incubated for 24 h at 37 °C with 5% CO2. Compounds were added as a 3-fold serial dilution series and cells incubated for 2 days at 37 °C with 5% CO2. Viability was measured using CellTiter-Glo® Reagent (Promega).

[4] = Mouse microsomal stability; assay type: in vitro ADME; settings: mouse, microsomes, 0.5 h, 2 μM
Protocol: 4. Method for microsomal stability:
To determine microsomal turnover, test compounds were incubated (2 μM) with liver microsomes in the presence of NADPH, and loss of parent molecule was measured by LC-MS after 30 min.

[5] = physchem; settings: pH 7.4

Structure (SMILES)	MIC [1]	MIC [2]	IC50 [3]	Mouse microsome (% metabolized in 30 min) [4]	solubility [5]
c1ccc(Cc2nnc(-c3cccs3)o2)cc1 [Compound 9]	1.1 ± 0.2 µM (≈ 0.267 µg/mL)	> 20 µM	79 µM	99%	31 µg/mL (≈ 128 µM)
CN(Cc1ccccc1)Cc1nnc(-c2cccs2)o1 [Compound 13]	0.5 ± 0.1 µM (≈ 0.143 µg/mL)	> 20 µM	> 100 µM	98%	420 µg/mL (≈ 1470 µM)
Fc1cccc(Cl)c1CNCc1nnc(-c2ccco2)o1 [Compound 20]	5.5 ± 0.4 µM (≈ 1.69 µg/mL)	> 20 µM	> 100 µM	99%	180 µg/mL (≈ 585 µM)
CN(CCc1c(F)cccc1Cl)c1nnc(-c2ccco2)o1 [Compound 23]	4 ± 0.6 µM (≈ 1.29 µg/mL)	> 20 µM	93 µM	99%	7 µg/mL (≈ 21.8 µM)
CN(Cc1ccc(C(F)(F)F)cc1)Cc1nnc(-c2ccccc2)o1 [Compound 18]	10.8 ± 3.3 µM (≈ 3.75 µg/mL)	> 20 µM	80 µM	99%	9 µg/mL (≈ 25.9 µM)
c1ccc(-c2nnc(CN3CCc4ccccc43)o2)cc1 [Compound 37]	2.3 ± 0.9 µM (≈ 0.638 µg/mL)	> 20 µM	> 100 µM	99%	21 µg/mL (≈ 75.7 µM)
c1ccc(-c2nnc(CN3CCCc4ccccc43)o2)cc1 [Compound 25]	1.7 ± 0.1 µM (≈ 0.495 µg/mL)	> 20 µM	> 100 µM	100%	3 µg/mL (≈ 10.3 µM)
c1csc(-c2nnc(CN3CCOc4ccccc43)o2)c1 [Compound 32]	1.8 ± 0.6 µM (≈ 0.539 µg/mL)	> 20 µM	> 100 µM	99%	33 µg/mL (≈ 110 µM)
FC(F)(F)c1ccc(-c2nnc(CN3CCCc4ccccc43)o2)cc1 [Compound 27]	0.7 ± 0.3 µM (≈ 0.252 µg/mL)	> 20 µM	> 100 µM	87%	< 2 µg/mL
CN(Cc1ccc(C(F)(F)F)cc1)Cc1nnc(-c2cccs2)o1 [Compound 17]	6.8 ± 2.4 µM (≈ 2.4 µg/mL)	> 20 µM	87 µM	98%	22 µg/mL (≈ 62.3 µM)
CN(Cc1nnc(-c2ccco2)o1)C(=O)c1c(F)cccc1Cl [Compound 22]	> 20 µM	> 20 µM	> 100 µM	95%	640 µg/mL (≈ 1910 µM)
CN(Cc1ccc(F)cc1)Cc1nnc(-c2ccccc2)o1 [Compound 16]	0.9 ± 0.03 µM (≈ 0.268 µg/mL)	> 20 µM	97 µM		
c1csc(-c2nnc(CN3Cc4ccccc4C3)o2)c1 [Compound 38]	6.7 ± 1.7 µM (≈ 1.9 µg/mL)	> 20 µM	> 100 µM	99%	12 µg/mL (≈ 42.3 µM)
Fc1ccc(-c2nnc(CN3CCCc4ccccc43)o2)cc1 [Compound 26]	0.2 ± 0.1 µM (≈ 0.0619 µg/mL)	> 20 µM	> 100 µM	100%	< 2 µg/mL
FC(F)(F)c1ccc(-c2nnc(CN3CCOc4ccccc43)o2)cc1 [Compound 35]	8.3 ± 1.7 µM (≈ 3 µg/mL)	> 20 µM	85 µM	95%	< 2 µg/mL
c1csc(-c2nnc(Cc3ccc4ccccc4c3)o2)c1 [Compound 7]	5.7 ± 0.2 µM (≈ 1.67 µg/mL)	> 20 µM	> 100 µM	100%	< 1 µg/mL
CN(Cc1nnc(-c2ccco2)s1)Cc1c(F)cccc1Cl [Compound 10]	3.2 ± 0.5 µM (≈ 1.08 µg/mL)	> 20 µM	75 µM	99%	20 µg/mL (≈ 59.2 µM)
c1ccc(-c2nnc(CN3Cc4ccccc4C3)o2)cc1 [Compound 39]	7.5 ± 3.5 µM (≈ 2.08 µg/mL)	> 20 µM	> 100 µM	98%	20 µg/mL (≈ 72.1 µM)
Fc1cccc(Cl)c1COCc1nnc(-c2ccco2)o1 [Compound 21]	6 ± 0.4 µM (≈ 1.85 µg/mL)	> 20 µM	> 100 µM	100%	150 µg/mL (≈ 486 µM)
